Consider 5 compounds from ChEMBL document CHEMBL5346922, “Discovery of phenylcarbamoyl xanthone derivatives as potent neuroprotective agents for treating ischemic stroke” (Eur J Med Chem, 2023).

pEC50, pIC50: −log10 of the molar value. Activity calls are given as the source filed them. The calls are words filed in the database; no cut-off is given here.

Data set [1] has as its system PC-12. The data set can be described thus: Neuroprotective activity against glutamate induced excitotoxicity in rat PC12 cells assessed as cell survival at 25 uM pretreated with glutamate for 24 hrs followed by compound addition and measured after 24 hrs. Type of data set: functional. The following applies: read-out: Survival.
For data set [2], the system named is PC-12. The data set can be described thus: Cytotoxicity against rat PC12 cells assessed as reduction in cell viability incubated for 24 hrs by MTT assay. Type of data set: functional, cell-based. The following applies: PC-12, 24 h. (Formazan colour is commonly taken as a measure of viable cells.)
Data set [3] concerns PC-12. Kind of data set: Cytotoxicity against rat PC12 cells assessed as reduction in cell viability at 80 uM incubated for 24 hrs by MTT assay. Type of data set: functional.
Data set [4] relates to PC-12. The data set can be described thus: Neuroprotective activity against glutamate induced excitotoxicity in rat PC12 cells assessed as cell survival at 160 uM pretreated with glutamate for 24 hrs followed by compound addition and measured after 24 hrs. The data set is classed as functional. The following applies: read-out: Survival.
Data set [5] concerns PC-12. Kind of data set: Neuroprotective activity in rat PC12 cells assessed as protection against glutamate induced excitotoxicity at 160 uM pretreated with glutamate for 24 hrs followed by compound addition and measured after 24 hrs. Type of data set: functional.
Data set [6] relates to PC-12. The data set can be described thus: Neuroprotective activity against glutamate induced excitotoxicity in rat PC12 cells assessed as cell survival at 20 uM pretreated with glutamate for 24 hrs followed by compound addition and measured after 24 hrs. The data set is classed as functional. The following applies: read-out: Survival.
For data set [7], the system named is PC-12. Kind of data set: Neuroprotective activity in rat PC12 cells assessed as protection against glutamate induced excitotoxicity at 20 uM pretreated with glutamate for 24 hrs followed by compound addition and measured after 24 hrs. Type of data set: functional.
The subject of data set [8] is PC-12. Kind of data set: Neuroprotective activity against H2O2-induced oxidative damage in rat PC12 cells assessed as increase in cell survival at 20 uM pretreated with H2O2 for 24 hrs followed by compound addition and measured after 24 hrs. The data set is classed as functional. As to conditions: read-out: Survival.
The test system of data set [9] is PC-12. Kind of data set: Neuroprotective activity against H2O2-induced oxidative damage in rat PC12 cells at 20 uM pretreated with H2O2 for 24 hrs followed by compound addition and measured after 24 hrs. The data set is classed as functional.
In data set [10] the test system is PC-12. Kind of data set: Neuroprotective activity against glutamate induced excitotoxicity in rat PC12 cells pretreated with glutamate for 24 hrs followed by compound addition and measured after 24 hrs. The data set is classed as functional, cell-based.
Data set [11] relates to PC-12. Kind of data set: Neuroprotective activity against H2O2-induced oxidative damage in rat PC12 cells pretreated with H2O2 for 24 hrs followed by compound addition and measured after 24 hrs. The data set is classed as functional, cell-based.
Data set [12] in a line: Acute toxicity in Sprague-Dawley rat assessed as animal death at 4000 mg/kg, po measured for 24 hrs. The following applies: in vivo. Type of data set: organism-based.
Data set [13] concerns Rattus norvegicus. The data set can be described thus: Neuroprotective activity against middle cerebral artery occlusion induced ischemia stroke Sprague-Dawley rat model assessed as Zea-longa score at 60 mg/kg, po measured after 24 hrs (reference value: 2.33 +/- 0.47). The data set is classed as functional.
The subject of data set [14] is Rattus norvegicus. The data set can be described thus: Neuroprotective activity against middle cerebral artery occlusion induced ischemia stroke Sprague-Dawley rat model assessed as decrease in cerebral infarction area at 60 mg/kg, ip measured after 24 hrs by TTC staining based microscopic assay (reference value: 15.91 +/- 9.06 %). Type of data set: functional. Set-up: scale not given: the % may be the effect or the level left.

The test system of data set [15] is Rattus norvegicus. Kind of data set: Neuroprotective activity against middle cerebral artery occlusion induced ischemia stroke Sprague-Dawley rat model assessed as decrease in brain water content at 60 mg/kg, ip measured after 24 hrs (reference value: 83.17 +/- 2.40%). Type of data set: functional. Set-up: scale not given: the % may be the effect or the level left.

In data set [16] the test system is Rattus norvegicus. The data set can be described thus: Neuroprotective activity against middle cerebral artery occlusion induced ischemia stroke Sprague-Dawley rat model assessed as reduction in TNF-alpha level in serum at 20 to 60 mg/kg, ip measured after 24 hrs by ELISA analysis. As to conditions: dose 20-60 mg/kg. Type of data set: functional, organism-based. For orientation: An ELISA detects its analyte on a solid surface through an enzyme-linked reagent.

Data set [17] deals with Rattus norvegicus. The data set can be described thus: Neuroprotective activity against middle cerebral artery occlusion induced ischemia stroke Sprague-Dawley rat model assessed as reduction in IL-1beta level in serum at 20 to 60 mg/kg, ip measured after 24 hrs by ELISA analysis. The data set is classed as functional, organism-based. The following applies: dose 20-60 mg/kg.

Data set [18] relates to Rattus norvegicus. The data set can be described thus: Neuroprotective activity against middle cerebral artery occlusion induced ischemia stroke Sprague-Dawley rat model assessed as increase in serum SOD level at 20 to 60 mg/kg, ip measured after 24 hrs. Type of data set: functional, organism-based. The following applies: dose 20-60 mg/kg.
Data set [19] relates to Rattus norvegicus. Kind of data set: Neuroprotective activity against middle cerebral artery occlusion induced ischemia stroke Sprague-Dawley rat model assessed as […] in serum MDA level at 20 to 60 mg/kg, ip measured after 24 hrs. Type of data set: functional, organism-based. The following applies: dose 20-60 mg/kg.
Data set [20] concerns Rattus norvegicus. Kind of data set: Neuroprotective activity against middle cerebral artery occlusion induced ischemia stroke Sprague-Dawley rat model assessed as Zea-longa score at 20 mg/kg, po measured after 24 hrs (reference value: 2.17+/- 0.37). Type of data set: functional.

Turning to `N[C@@H](CCC(=O)O)C(=O)O` [GLUTAMIC ACID], in the data set with PC-12 [1], the viability at 25 µM was determined as 30.5%.
Regarding `COc1c(OC(=O)N(C)c2ccccc2)cc2oc3c(CN(C)C)c4c(c(O)c3c(=O)c2c1CC=C(C)C)C=CC(C)(C)O4`, the pIC50 in the data set on PC-12 [2] was 5.30. Also, the Activity in the data set on PC-12 [3] is 90%.
For `CC12CC3CC(C)(C1)CC(N)(C3)C2` [MEMANTINE], the viability at 160 µM with PC-12 [4] was determined as 63%. Also, the Activity in the data set on PC-12 [5] was 46.85%.
Consider `COc1c(OC(=O)N(C)c2ccccc2)cc2oc3cc4c(c(O)c3c(=O)c2c1CC=C(C)C)C=CC(C)(C)O4`, for which, in the data set on PC-12 [2], the pIC50 is 5.48. Further, the viability at 20 µM in the data set with PC-12 [6] turned out to be 68.6%; in the data set on PC-12 [8], 78.9%. Also, the Activity with PC-12 [7] is 54.79%; in the data set on PC-12 [9] it was 52.62%; in data set [12] it was “Non-Toxic”; in the data set with Rattus norvegicus [13], 1.67; in the data set with Rattus norvegicus [14] it was 1.78%; in the data set with Rattus norvegicus [15] it was 77.41%. The pEC50 was 4.79 in the data set on PC-12 [10] and 4.71 in the data set with PC-12 [11]. Moreover, the result in the data set on PC-12 [3] was inactive. The outcome in the data set with Rattus norvegicus [16], with Rattus norvegicus [17], with Rattus norvegicus [18] and in the data set with Rattus norvegicus [19] was Active.
Turning to `CCCCC1OC(=O)c2ccccc21` (stereo not drawn) [RAC-3-N-BUTYLPHTHALIDE], the Activity in the data set on Rattus norvegicus [20] worked out at 1.33; in the data set on Rattus norvegicus [14], 1.64%; in the data set on Rattus norvegicus [15], 82.2%.

By pIC50 is commonly meant the IC50 on a negative log10 scale, so that one unit is a factor of ten. As usually defined, the pEC50 is −log10 of the EC50, conventionally taken in molar units.
